Among the test systems are ACHN; HL-60; SN12C; MDA-MB-231; OVCAR-3; K562; SNB-19; RXF 393; A549; UACC-62; OVCAR-5; Hs-578T; UACC-257; HOP-62; CCRF-CEM; HCT-15; SF-295; NCI-H460; Malme-3M; SR.
Assay in all cases: NCI anticancer screen, dose series, 48 h

Each structure is given as a SMILES string.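 Growth conditions: 96-well plates. Treatment: test compound, 48 hours, 5 concentrations. Analysis: linear interpolation between bracketing concentrations; unreached endpoints set to highest concentration. Abbreviation: GI50, concentration required for 50% inhibition of growth.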 Calls of active or inactive are those of the source. Rule as the data show it: active = GI50 up to about 1.1 µM and inactive = higher. Peptide text beside a SMILES is read from it. * marks the point of attachment. X27 = Clc1c(Cl)c(Cl)c(O*)c(Cl)c1Cl; Boc = CC(C)(C)OC(=O)*; OBn = c1ccc(CO*)cc1; Bn = c1ccc(C*)cc1

For the compound `Cc1c2c(C(N)=O)nccc2c(C)c2c1c1ccccc1n2Cc1ccccc1`, the GI50 with ACHN is 16.3 µM (inactive); in the assay on HL-60, 23.3 µM (inactive); with SN12C, 17.7 µM (inactive); in the assay on MDA-MB-231, 9.75 µM (inactive); in the assay with OVCAR-3 it was 3.97 µM (inactive); in the assay on K562, 22.7 µM (inactive). In addition, the GI50 in the assay on SNB-19 was 14.8 µM (inactive); with RXF 393, 11.9 µM (inactive); with A549, 14.8 µM (inactive); with UACC-62 it was 60.4 µM (inactive); with OVCAR-5, 28.6 µM (inactive); with Hs-578T, 6.07 µM (inactive). Besides, the GI50 was 43.3 µM (inactive) with UACC-257; 6.38 µM (inactive) in the assay with HOP-62; 23.3 µM (inactive) in the assay on CCRF-CEM; 16 µM in the assay on HCT-15; 10.8 µM (inactive) in the assay on SF-295; 11.6 µM (inactive) in the assay with NCI-H460.
On to `CCOC(=O)Cc1nc2c(O)ncnc2n1C1OC(COC(C)=O)C(OC(C)=O)C1OC(C)=O` (centres undefined), for which the GI50 in the assay with ACHN, in the assay with HL-60, in the assay with Malme-3M, with SN12C, with MDA-MB-231 and with OVCAR-3 was > 100 µM (inactive) in each case. The GI50 with K562, in the assay with SNB-19, in the assay with RXF 393, in the assay on A549, with UACC-62 and with OVCAR-5 was > 100 µM (inactive) each time. The GI50 with Hs-578T was > 100 µM (inactive); with UACC-257 it was > 100 µM (inactive); with HOP-62 it was > 100 µM (inactive); in the assay on CCRF-CEM, > 100 µM (inactive); with HCT-15 it was greater than 100 µM; in the assay with SF-295 it was > 100 µM (inactive). The GI50 in the assay on NCI-H460 is > 100 µM (inactive).
On to `Cc1ccsc1/C=N/Nc1cnccn1`, for which the GI50 with ACHN is > 100 µM (inactive); with HL-60 it was 35.9 µM (inactive); in the assay with Malme-3M, > 100 µM (inactive); in the assay on SN12C, > 100 µM (inactive); in the assay on MDA-MB-231, > 100 µM (inactive); with OVCAR-3, > 100 µM (inactive). In addition, the GI50 with K562 is > 100 µM (inactive); in the assay on SNB-19, > 100 µM (inactive); in the assay with RXF 393, > 100 µM (inactive); in the assay with A549 it was > 100 µM (inactive); in the assay on UACC-62, > 100 µM (inactive); in the assay on OVCAR-5, 94 µM (inactive). Moreover, the GI50 with Hs-578T is > 100 µM (inactive); with UACC-257, > 100 µM (inactive); with HOP-62, > 100 µM (inactive); in the assay on CCRF-CEM it was > 100 µM (inactive); with HCT-15 it was greater than 100 µM; in the assay on SF-295, > 100 µM (inactive).
In the case of `CC(NC(=O)/C(=C/c1ccccc1O)NC(=O)c1ccccc1)C(=O)O` (centres undefined), the GI50 was 19.1 µM (inactive) in the assay on ACHN; > 100 µM (inactive) in the assay on HL-60; 21 µM (inactive) in the assay on Malme-3M; 21.6 µM (inactive) in the assay with SN12C; 22 µM (inactive) in the assay with MDA-MB-231; > 100 µM (inactive) in the assay with K562. For the same compound, the GI50 was 20.6 µM (inactive) in the assay on SNB-19; 21.8 µM (inactive) in the assay with RXF 393; 43.1 µM (inactive) in the assay with A549; 26 µM (inactive) in the assay with UACC-62; > 100 µM (inactive) with OVCAR-5; 17.4 µM (inactive) in the assay on Hs-578T. The GI50 was 70 µM (inactive) in the assay with UACC-257; > 100 µM (inactive) with CCRF-CEM; 24.1 µM with HCT-15; 21.4 µM (inactive) in the assay on SF-295; 24.5 µM (inactive) with NCI-H460.
Turning to `NC(=O)NCCSC1CCCCC1O` (centres undefined), the GI50 with ACHN, in the assay on Malme-3M, in the assay with SN12C, with SR, in the assay on MDA-MB-231 and with OVCAR-3 was > 100 µM (inactive) in each case. The GI50 in the assay on K562, in the assay on SNB-19, in the assay with RXF 393, in the assay on A549, in the assay on UACC-62 and with OVCAR-5 was > 100 µM (inactive) throughout. For the same compound, the GI50 with Hs-578T is > 100 µM (inactive); with UACC-257, > 100 µM (inactive); in the assay on HOP-62 it was > 100 µM (inactive); with HCT-15 it was greater than 100 µM; with SF-295, > 100 µM (inactive); with NCI-H460 it was > 100 µM (inactive).
`O=c1onc2c3ccccc3ncn12`: the GI50 in the assay on ACHN, in the assay with SN12C, in the assay on SR, in the assay with MDA-MB-231, in the assay on OVCAR-3 and with K562 was > 100 µM (inactive) in each case. The GI50 in the assay on SNB-19, in the assay on RXF 393, with A549, in the assay on UACC-62, with OVCAR-5 and in the assay with Hs-578T was > 100 µM (inactive) each time. Also, the GI50 is > 100 µM (inactive) in the assay with UACC-257; > 100 µM (inactive) with HOP-62; > 100 µM (inactive) with CCRF-CEM; greater than 100 µM in the assay with HCT-15; > 100 µM (inactive) in the assay on SF-295.
`CC(=O)N1c2ccccc2C(C)(C)OC1C(Cl)(Cl)Cl` (centres undefined): the GI50 in the assay on ACHN was 41.1 µM (inactive); with HL-60, 16.8 µM (inactive); in the assay on Malme-3M, 35.9 µM (inactive); with SN12C, 29.9 µM (inactive); with MDA-MB-231 it was 39.6 µM (inactive); in the assay on OVCAR-3 it was 33.1 µM (inactive). Moreover, the GI50 in the assay on SNB-19 was 44.7 µM (inactive); in the assay with A549, 27.7 µM (inactive); with UACC-62, 37 µM (inactive); in the assay with OVCAR-5, 44.8 µM (inactive); in the assay on Hs-578T, 22.6 µM (inactive); with UACC-257, 26.5 µM (inactive). Besides, the GI50 was 55.8 µM (inactive) in the assay on HOP-62; 27.7 µM (inactive) in the assay with CCRF-CEM; 32.2 µM with HCT-15; 37.6 µM (inactive) with SF-295; 33.3 µM (inactive) in the assay with NCI-H460.
Turning to `CC(=O)OCC1OC(n2c(N)c(C#N)c(-c3ccc(C)cc3)c(C#N)c2=S)C(OC(C)=O)C(OC(C)=O)C1OC(C)=O` (centres undefined), the GI50 in the assay on ACHN is 29.1 µM (inactive); in the assay on HL-60, 87.5 µM (inactive); in the assay on Malme-3M it was 17.8 µM (inactive); with SN12C it was 15.6 µM (inactive); with MDA-MB-231 it was 44.9 µM (inactive); with OVCAR-3 it was 31.3 µM (inactive). The GI50 in the assay with K562 is 40.5 µM (inactive); in the assay with SNB-19, 18.8 µM (inactive); in the assay with RXF 393, 18.7 µM (inactive); in the assay with A549 it was 16 µM (inactive); in the assay on UACC-62, 43.5 µM (inactive); in the assay with OVCAR-5, 53.5 µM (inactive). The GI50 is 19.8 µM (inactive) in the assay with Hs-578T; 19.2 µM (inactive) in the assay with UACC-257; 20 µM (inactive) in the assay on HOP-62; 35.2 µM (inactive) in the assay with CCRF-CEM; 38 µM with HCT-15; 25.4 µM (inactive) with SF-295. For the same compound, in the assay with NCI-H460, the GI50 was 31.4 µM (inactive).
As for `NC(=O)c1csc(C2(O)COC(CO)C2O)n1` (centres undefined), the GI50 with ACHN, with Malme-3M, in the assay on SN12C, with SR, with MDA-MB-231 and with OVCAR-3 was > 100 µM (inactive) each time. Further, the GI50 in the assay on SNB-19, in the assay on RXF 393, in the assay on A549, in the assay on UACC-62, in the assay with OVCAR-5 and in the assay with Hs-578T was > 100 µM (inactive) in each case. For the same compound, the GI50 in the assay with UACC-257 was > 100 µM (inactive); with HOP-62, > 100 µM (inactive); with CCRF-CEM it was > 100 µM (inactive); in the assay with HCT-15 it was greater than 100 µM; in the assay on SF-295 it was > 100 µM (inactive); in the assay with NCI-H460 it was > 100 µM (inactive).
Take `COc1ccc(/C=C(\NC(=O)c2ccccc2)C(=O)NN(C)c2ccnc3cc(Cl)ccc23)cc1OC`: the GI50 was 26.1 µM (inactive) in the assay with ACHN; 26.1 µM (inactive) in the assay on Malme-3M; 25.9 µM (inactive) in the assay on SN12C; 16.2 µM (inactive) in the assay with SR; 24.3 µM (inactive) in the assay on MDA-MB-231; 27.6 µM (inactive) with OVCAR-3. The GI50 with K562 was 18.9 µM (inactive); with SNB-19, 41.2 µM (inactive); in the assay on RXF 393 it was 18.9 µM (inactive); in the assay with A549, 33 µM (inactive); in the assay on OVCAR-5, 45.9 µM (inactive); in the assay on Hs-578T, 52.8 µM (inactive). The GI50 is 26.4 µM (inactive) in the assay with UACC-257; 41.3 µM (inactive) in the assay on HOP-62; 24.7 µM in the assay with HCT-15; 36.2 µM (inactive) in the assay with SF-295; 19 µM (inactive) with NCI-H460.
In the case of `CC(C)CC(NC(=O)C(CCC(=O)OCc1ccccc1)NC(=O)OC(C)(C)C)C(=O)NC(COCc1ccccc1)C(=O)NC(Cc1ccccc1)C(=O)Oc1c(Cl)c(Cl)c(Cl)c(Cl)c1Cl` (centres undefined) (Boc-E(OBn)LS(Bn)F-X27; configuration not given here), the GI50 with ACHN is 23.4 µM (inactive); in the assay on Malme-3M, 33.1 µM (inactive); in the assay on SN12C, 29.1 µM (inactive); in the assay with SR it was 29.2 µM (inactive); in the assay with MDA-MB-231, 15.6 µM (inactive); in the assay on SNB-19, 28.7 µM (inactive). In addition, the GI50 in the assay on RXF 393 was 21.4 µM (inactive); with A549, 28.6 µM (inactive); in the assay on UACC-62 it was 20.7 µM (inactive); with OVCAR-5, 25.3 µM (inactive); with Hs-578T it was 25.1 µM (inactive); in the assay with UACC-257 it was 28.2 µM (inactive). Further, the GI50 in the assay with CCRF-CEM was 26.7 µM (inactive); in the assay on HCT-15, 25.8 µM; in the assay on SF-295 it was 25.5 µM (inactive); with NCI-H460 it was 27.2 µM (inactive).

For the origin of these results see ChEMBL document CHEMBL1201862, “PubChem BioAssay data set” (2004).
